Data: patent EP1070454A1, “TRANSGENIC ANIMAL SHOWING VASCULAR TISSUE-SPECIFIC EXPRESSION OF ANGIOTENSIN II2 RECEPTOR” (SUNTORY LIMITED, priority 1999, dated 2000)

How the values were obtained:
kininogenase = assay: Angiotensin II-induced kininogenase activity in isolated aorta (radioimmunoassay); format: biochemical, mice; conditions: for inhibition of the increase of kininogenase activity: increase caused by AngII + CV11974; for Angiotensin II-induced kininogenase activity in isolated aorta: mean ± SE
Method: Then, the activity of kininogenase, which is an enzyme for producing bradykinin from kinonogen, was compared between transgenic and wild-type mice in isolated aortic vessels. After abdominal incision of each mouse, the abdominal aorta was isolated and the aortic extract homogenized in the presence of 0.1 M phosphate buffer (0.2% bacitracin, 3 mM O-phenanthroline, 30 mM EDTA-Na2) containing a protease inhibitor was dried in nitrogen under 90% ethanol. The dried extract was solubilized in a buffer containing an angiotensin-converting enzyme inhibitor and tested for kininogenase activity by radioimmunoassay of […] produced from bovine kininogen as a substrate (Table 4).

[1] = system: cGMP production in isolated aorta; assay: Angiotensin II-induced cGMP production in isolated aorta (radioimmunoassay); format: cell-based, mice; conditions: for inhibition of the increase of cGMP production: increase caused by AngII + CV11974; for Angiotensin II-induced cGMP production in isolated aorta: mean ± SE
Text: Then, AngII-induced cGMP production in isolated aortic vessels was compared between transgenic and wild-type mice in order to examine whether or not vasodilator action of AngII is mediated by cGMP. After abdominal incision of each mouse, the abdominal aorta was isolated and the aortic extract homogenized by sonication in ethanol was dried in nitrogen and treated with an acetylation reagent (acetic anhydride : triethylamine = 1:2) and then assayed for cGMP level by radioimmunoassay using an anti cGMP antibody (Table 3). […]

isolated aorta = assay: Angiotensin II-induced contraction of isolated aorta (rings in myograph); format: cell-based, mice; conditions: for Angiotensin II-induced vasoconstriction: isolated abdominal aorta rings, mean ± SE
Method: AngII-induced contraction of isolated aortic vessels was compared between transgenic and wild-type mice. After abdominal incision of each mouse, the abdominal aorta was isolated and cut into rings, which were then suspended under a constant tension of 0.8 g in a myograph. Change of vascular tension after addition of AngII was recorded under perfusion with Tyrode's solution (137 mmol/L NaCl, 2.7 mmol/L KCl, 1.8 mmol/L CaCl2, 1.1 mmol/L MgCl2, 0.42 mmol/L NaH2PO4, 12 mmol/L NaHCO3 and 5.7 mmol/L glucose, pH 7.4) (Table 2). AngII-induced contraction of isolated aorta increased by about 24% in AT2-TG mice in the presence of an AT2 receptor inhibitor (PD123319, 1-[[4-(dimethylamino)-3-methylphenyl]methyl]-5-(diphenylacetyl)-4,5,6,7-tetrahydro-1H-imidazo[4,5-c]pyridine-6-carboxylic acid ditrifluoroacetate monohydrate available from PARKE-DAVIS, Ann Arbor, Michigan) as compared with the contraction in its absence.

[2] = Blood pressure change after continuous administration of angiotensin II (tail-cuff method); format: in vivo, mice; conditions: for Average blood pressure under administration of angiotensin II: AngII 0.7 mg/day/kg via osmotic pump, mean ± SE
Method: Change of average awaking blood pressure induced by chronic administration of angiotensin II (AngII) was compared between transgenic and wild-type mice. AngII (0.7 mg/day/kg) was chronically administered via an osmotic pump embedded in the back of each mouse, and the blood pressure of the mouse was measured at the tail by the tail-cuff method (Table 1). […]

[3] = AT2-TG mice, in the presence of AngII + CV11974 (AT2 receptor stimulation)
[4] = wild-type mice, in the presence of AngII + CV11974 (AT2 receptor stimulation)

CCOc1nc2cccc(C(=O)O)c2n1Cc1ccc(-c2ccccc2-c2nnn[nH]2)cc1 (racemic) [CV11974]
increase of kininogenase activity in isolated aorta (kininogenase; [3]): 150% | change of kininogenase activity in isolated aorta (kininogenase; [4]): did not change | increase of amount of cGMP produced in isolated aorta [1, 3]: 105% | change of amount of cGMP produced in isolated aorta [1, 4]: did not change

COC(=O)[C@@H](N)CCCNC(=N)N[N+](=O)[O-] [L-NAME]
inhibition of the increase of kininogenase activity (kininogenase; AT2-TG mice): completely inhibited | inhibition of the increase of cGMP production ([1]; AT2-TG mice): completely inhibited

Cc1cc(Cn2cnc3c2CC(C(=O)O)N(C(=O)C(c2ccccc2)c2ccccc2)C3)ccc1N(C)C.O.O=C(O)C(F)(F)F.O=C(O)C(F)(F)F (stereo not shown) [PD123319, 1-[[4-(dimethylamino)-3-methylphenyl]methyl]-5-(diphenylacetyl)-4,5,6,7-tetrahydro-1H-imidazo[4,5-c]pyridine-6-carboxylic acid ditrifluoroacetate monohydrate]
increase of AngII-induced contraction of isolated aorta (isolated aorta; AT2-TG mice, in the presence of PD123319 compared with its absence): about 24% | Angiotensin II-induced vasoconstriction (isolated aorta; AT2-TG mice, with PD123319, relative to its absence): 124±2.1 % of control | Angiotensin II-induced vasoconstriction (isolated aorta; Wild-type mice, with PD123319, relative to its absence): 98±1.1 % of control | change of AngII-induced contraction (isolated aorta; wild-type mice, in the presence of PD123319): no contraction change

Angiotensin II [AngII, vasopressor whose action is mediated through receptor subtypes AT1 and AT2]
Angiotensin II-induced vasoconstriction (isolated aorta; AT2-TG mice, without or with PD123319): 100±0.2 % of control | Angiotensin II-induced vasoconstriction (isolated aorta; Wild-type mice, without or with PD123319): 100±0.7 % of control | Average blood pressure under administration of angiotensin II ([2]; AT2-TG mice, Day 0): 85±1.8 mmHg | Average blood pressure under administration of angiotensin II ([2]; AT2-TG mice, Day 4): 84±2.7 mmHg | Average blood pressure under administration of angiotensin II ([2]; AT2-TG mice, Day 7): 87±2.1 mmHg | Average blood pressure under administration of angiotensin II ([2]; AT2-TG mice, Day 14): 89±2.6 mmHg | blood pressure change ([2]; AT2-TG mice, after 2 weeks, AngII 0.7 mg/day/kg): no blood pressure change | Average blood pressure under administration of angiotensin II ([2]; Wild-type mice, Day 0): 83±2.7 mmHg | Average blood pressure under administration of angiotensin II ([2]; Wild-type mice, Day 4): 94±2.1 mmHg | Average blood pressure under administration of angiotensin II ([2]; Wild-type mice, Day 7): 114±2.8 mmHg | Average blood pressure under administration of angiotensin II ([2]; Wild-type mice, Day 14): 121±3.2 mmHg | increase in average blood pressure ([2]; wild-type mice, after 2 weeks, AngII 0.7 mg/day/kg): 38 mmHg | Angiotensin II-induced kininogenase activity in isolated aorta (kininogenase; AT2-TG mice): 0.76±0.07 ng kinin/mg/h | Angiotensin II-induced kininogenase activity in isolated aorta (kininogenase; Wild-type mice): 0.68±0.11 ng kinin/mg/h | Angiotensin II-induced cGMP production in isolated aorta ([1]; AT2-TG mice): 330±41 fmol/gwt | Angiotensin II-induced cGMP production in isolated aorta ([1]; Wild-type mice): 328±14 fmol/gwt

icatibant
inhibition of the increase of kininogenase activity (kininogenase; AT2-TG mice): completely inhibited | inhibition of the increase of cGMP production ([1]; AT2-TG mice): completely inhibited
